Experimental data reported in patent US20120264735A1 (priority 2009, published 2012).

biological target: T1, c-Met kinase (recombinant c-Met) (Homo sapiens, UniProt P08581); experiment: In vitro kinase assay I (homogeneous time-resolved fluorescence tyrosine kinase assay); assay type: biochemical
T1 construct: 0.27 nM recombinant c-Met
How it was run: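 Biotinylated peptide (0.5 μM) phosphorylated by 0.2 nM recombinant c-Met with 50 μM MgATP, 60 min at room temperature, pH 7.4, 5% DMSO. EDTA stop; HTRF read with Eu-anti-phosphotyrosine antibody and streptavidin-APC. IC50 from 4-parameter logistic fit.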

T1 sequence (P08581 25-1390): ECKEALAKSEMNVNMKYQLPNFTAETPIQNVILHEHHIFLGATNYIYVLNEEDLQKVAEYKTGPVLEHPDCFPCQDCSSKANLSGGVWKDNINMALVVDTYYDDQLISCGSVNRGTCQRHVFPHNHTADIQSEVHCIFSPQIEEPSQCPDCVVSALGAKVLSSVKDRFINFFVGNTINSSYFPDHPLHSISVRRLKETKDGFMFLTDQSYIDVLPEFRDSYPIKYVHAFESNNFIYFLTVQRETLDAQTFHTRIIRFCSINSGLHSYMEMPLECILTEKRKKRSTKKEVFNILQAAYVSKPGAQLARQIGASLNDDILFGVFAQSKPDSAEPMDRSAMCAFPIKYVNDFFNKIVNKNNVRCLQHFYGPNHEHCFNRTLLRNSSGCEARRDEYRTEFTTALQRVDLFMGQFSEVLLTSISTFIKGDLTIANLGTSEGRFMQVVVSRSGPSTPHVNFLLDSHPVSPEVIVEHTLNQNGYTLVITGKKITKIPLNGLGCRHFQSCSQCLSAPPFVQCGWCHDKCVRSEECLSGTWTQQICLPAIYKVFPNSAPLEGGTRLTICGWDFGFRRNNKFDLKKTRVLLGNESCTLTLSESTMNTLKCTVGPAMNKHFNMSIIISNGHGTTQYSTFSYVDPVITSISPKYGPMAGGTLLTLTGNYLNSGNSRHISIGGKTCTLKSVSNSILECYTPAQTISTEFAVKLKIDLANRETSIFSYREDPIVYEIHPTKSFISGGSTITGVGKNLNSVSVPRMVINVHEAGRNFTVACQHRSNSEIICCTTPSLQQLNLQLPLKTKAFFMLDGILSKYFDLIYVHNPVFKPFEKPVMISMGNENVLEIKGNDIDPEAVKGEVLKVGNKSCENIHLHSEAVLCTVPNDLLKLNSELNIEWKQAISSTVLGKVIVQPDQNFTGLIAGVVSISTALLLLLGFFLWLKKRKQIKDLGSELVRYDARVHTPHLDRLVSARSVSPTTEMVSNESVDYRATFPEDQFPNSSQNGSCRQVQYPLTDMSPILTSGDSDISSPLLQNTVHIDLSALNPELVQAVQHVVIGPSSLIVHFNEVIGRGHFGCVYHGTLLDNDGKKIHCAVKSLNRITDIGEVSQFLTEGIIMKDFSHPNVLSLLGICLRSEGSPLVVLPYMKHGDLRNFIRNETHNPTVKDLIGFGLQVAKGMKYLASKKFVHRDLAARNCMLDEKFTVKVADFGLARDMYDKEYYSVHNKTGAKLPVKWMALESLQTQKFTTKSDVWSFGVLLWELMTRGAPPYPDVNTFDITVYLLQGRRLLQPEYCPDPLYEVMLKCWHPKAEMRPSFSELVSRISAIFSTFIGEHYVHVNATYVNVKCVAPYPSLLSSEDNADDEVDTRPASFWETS

Row | SMILES | IC50
1 | Cn1cc(-n2ccc(=O)c(Cc3cccc(-c4ncc(N5CCC(C(N)=O)CC5)cn4)c3)n2)cn1 [Example 445, 1-[2-(3-{[1-(1-methyl-1H-pyrazol-4-yl)-4-oxo-1,4-dihydropyridazin-3-yl]methyl}phenyl)pyrimidin-5-yl]piperidine-4-carboxamide] | < 100 nM
2 | CCOC(=O)Nc1cccc(Cc2nn(-c3ccn(C)n3)ccc2=O)c1 [Example 25, ethyl (3-{[1-(1-methyl-1H-pyrazol-3-yl)-4-oxo-1,4-dihydropyridazin-3-yl]methyl}phenyl)carbamate] | 100 to 1000 nM
3 | Cn1cc(-n2ccc(=O)c(Cc3cccc(-c4ncc(OCC(=O)N5CCOCC5)cn4)c3)n2)cn1 [Example 280, 1-(1-methyl-1H-pyrazol-4-yl)-3-{3-[5-(2-morpholin-4-yl-2-oxoethoxy)pyrimidin-2-yl]benzyl}pyridazin-4(1H)-one] | < 100 nM
4 | Cn1cc(-n2ccc(=O)c(Cc3cccc(-c4ncc(OCC(=O)O)cn4)c3)n2)cn1 [Example 357, [2-(3-{[1-(1-Methyl-1H-pyrazol-4-yl)-4-oxo-1,4-dihydropyridazin-3-yl]methyl}phenyl)pyrimidin-5-yl]oxyacetic acid] | < 100 nM
5 | COC(C)(C)COc1cnc(-c2cccc(Cc3nn(-c4cnn(C)c4)ccc3=O)c2)nc1 [Example 267, 3-{3-[5-(2-methoxy-2-methylpropoxy)pyrimidin-2-yl]benzyl}-1-(1-methyl-1H-pyrazol-4-yl)pyridazin-4(1H)-one] | < 100 nM
6 | CCn1cc(-n2ccc(=O)c(Cc3cccc(-c4ncc(-c5cnn(C)c5)cn4)c3)n2)cn1 [Example 157, 1-(1-ethyl-1H-pyrazol-4-yl)-3-{3-[5-(1-methyl-1H-pyrazol-4-yl)pyrimidin-2-yl]benzyl}pyridazin-4(1H)-one] | < 100 nM
7 | Cn1cc(-n2ccc(=O)c(Cc3cccc(-c4ncc(-c5ccnnc5)cn4)c3)n2)cn1 [Example 425, 1-(1-methyl-1H-pyrazol-4-yl)-3-[3-(5-pyridazin-4-ylpyrimidin-2-yl)benzyl]pyridazin-4(1H)-one] | < 100 nM
8 | CC(C)CCn1cnc(-c2cccc(Cc3nn(-c4cnn(C)c4)ccc3=O)c2)n1 [Example 78, 3-{3-[1-(3-methylbutyl)-1H-1,2,4-triazol-3-yl]benzyl}-1-(1-methyl-1H-pyrazol-4-yl)pyridazin-4(1H)-one] | < 100 nM
9 | CCn1cc(-n2ccc(=O)c(C(C)c3cccc(-c4ncc(OCC5CCCO5)cn4)c3)n2)cn1 (single isomer, unassigned) [Example 298, 1-(1-ethyl-1H-pyrazol-4-yl)-3-[(1R or S)-1-{3-[5-(tetrahydrofuran-2-ylmethoxy)pyrimidin-2-yl]phenyl}ethyl]pyridazin-4(1H)-one] | < 100 nM
10 | Cn1cc(-n2ccc(=O)c(Cc3cccc(-c4ncc(OCc5ccccn5)cn4)c3)n2)cn1 [Example 354, 1-(1-methyl-1H-pyrazol-4-yl)-3-{3-[5-(pyridin-2-ylmethoxy)pyrimidin-2-yl]benzyl}pyridazin-4(1H)-one] | < 100 nM
11 | Cn1cc(-n2ccc(=O)c(Cc3cccc(-c4ncc(OCc5ccccc5)cn4)c3)n2)cn1 [Example 67, 3-{3-[5-(benzyloxy)pyrimidin-2-yl]benzyl}-1-(1-methyl-1H-pyrazol-4-yl)pyridazin-4(1H)-one] | < 100 nM
12 | CCOc1cnc2ccc(C(C)c3nn(-c4cnn(CC)c4)ccc3=O)cc2c1 (single isomer, unassigned) [Example 227, 3-[(1R or S)-1-(3-ethoxyquinolin-6-yl)ethyl]-1-(1-ethyl-1H-pyrazol-4-yl)pyridazin-4(1H)-one] | < 100 nM
13 | CCn1cc(-n2ccc(=O)c(C(C)c3cccc(-c4ncc(COC)cn4)c3)n2)cn1 (single isomer, unassigned) [Example 217, 1-(1-ethyl-1H-pyrazol-4-yl)-3-((1S or R)-1-{3-[5-(methoxymethyl)pyrimidin-2-yl]phenyl}ethyl)pyridazin-4(1H)-one] | 100 to 1000 nM
14 | Cn1cc(-n2ccc(=O)c(Cc3cccc(-c4ncc(OCC(F)c5ccncc5)cn4)c3)n2)cn1 (racemic) [Example 389, rac-3-(3-{5-[2-fluoro-2-(pyridin-4-yl)ethoxy]pyrimidin-2-yl}benzyl)-1-(1-methyl-1H-pyrazol-4-yl)pyridazin-4(1H)-one] | < 100 nM

Other lines, results leading:

Row | IC50 | SMILES
15 | < 100 nM | O=C(Nc1cccc(Cc2nn(-c3cc(F)c(F)c(F)c3)ccc2=O)c1)OCCN1CCS(=O)(=O)CC1 [Example 515, 2-(1,1-dioxidothio-morpholin-4-yl)ethyl (3-{[4-oxo-1-(3,4,5-trifluorophenyl)-1,4-dihydropyridazin-3-yl]methyl}phenyl)carbamate]
16 | < 100 nM | CCC(COC(=O)Nc1cccc(Cc2nn(-c3cc(F)cc(F)c3)ccc2=O)c1)OC (racemic) [Example 591, rac-2-methoxybutyl (3-{[1-(3,5-difluorophenyl)-4-oxo-1,4-dihydropyridazin-3-yl]methyl}phenyl)carbamate]
17 | < 100 nM | CCOc1ccnc(-c2cccc(C(C)c3nn(-c4cnn(C)c4)ccc3=O)c2)n1 (racemic) [Example 678, rac-3-{1-[3-(4-Ethoxypyrimidin-2-yl)phenyl]ethyl}-1-(1-methyl-1H-pyrazol-4-yl)pyridazin-4(1H)-one]
18 | < 100 nM | CC(C)(O)CCOC(=O)Nc1cccc(Cc2nn(-c3cc(F)c(F)c(F)c3)ccc2=O)c1 [Example 514, 3-hydroxy-3-methylbutyl (3-{[4-oxo-1-(3,4,5-trifluorophenyl)-1,4-dihydropyridazin-3-yl]methyl}phenyl)carbamate]
19 | < 100 nM | [2H]C([2H])([2H])n1cc(-n2ccc(=O)c(C(F)c3cccc(-c4ncc(OC([2H])([2H])C([2H])([2H])[2H])cn4)c3)n2)cn1 (racemic) [Example 658, rac-3-[[3-(5-Ethoxypyrimidin-2-yl)phenyl](fluoro)methyl]-1-(1-methyl-1H-pyrazol-4-yl)pyridazin-4(1H)-one-d8]
20 | < 100 nM | Cn1cc(-n2ccc(=O)c(Cc3cccc(-c4ncc(N5CCS(=O)(=O)CC5)cn4)c3)n2)cn1 [Example 448, 3-{3-[5-(1,1-dioxidothio-morpholin-4-yl]pyrimidin-2-yl]benzyl}-1-(1-methyl-1H-pyrazol-4-yl)pyridazin-4(1H)-one]
21 | 100 to 1000 nM | CCOC(=O)Nc1cccc(Cc2nn(-c3cnn(CCN)c3)ccc2=O)c1 [Example 647, Ethyl [3-({1-[1-(2-aminoethyl)-1H-pyrazol-4-yl]-4-oxo-1,4-dihydropyridazin-3-yl}methyl)phenyl]carbamate]
22 | < 100 nM | CCNC(=O)c1cnc(-c2cccc(Cc3nn(-c4cnn(C)c4)ccc3=O)c2)nc1 [Example 484, N-ethyl-2-(3-{[1-(1-methyl-1H-pyrazol-4-yl)-4-oxo-1,4-dihydro-pyridazin-3-yl]methyl}phenyl)pyrimidine-5-carboxamide]
23 | < 100 nM | Cn1cc(-n2ccc(=O)c(Cc3cccc(NC(=O)OCC4CCCCC4)c3)n2)cn1 [Example 540, cyclohexylmethyl (3-{[1-(1-methyl-1H-pyrazol-4-yl)-4-oxo-1,4-dihydropyridazin-3-yl]methyl}phenyl)carbamate]
24 | < 100 nM | N#Cc1cccc(-n2ccc(=O)c(Cc3cccc(NC(=O)OCC4CNC4)c3)n2)c1 [Example 627, azetidin-3-ylmethyl (3-{[1-(3-cyanophenyl)-4-oxo-1,4-dihydropyridazin-3-yl]methyl}phenyl)carbamate]
